In ChEMBL document CHEMBL3044728, “Synthesis and biological activity of new (E)-alpha-(Methoxyimino)benzeneacetate derivatives containing a substituted pyrazole ring” (2010):

Key:
Format in all cases: functional
[1] = system: Phytophthora infestans; assay: Antifungal activity against Phytophthora infestans assessed as inhibition at 25 mg/L relative to control
[2] = system: Pyricularia oryzae; assay: Antifungal activity against Magnaporthe oryzae assessed as inhibition at 0.92 mg/L relative to control
[3] = system: Pyricularia oryzae; assay: Antifungal activity against Magnaporthe oryzae assessed as inhibition at 25 mg/L relative to control
[4] = system: Tetranychus cinnabarinus; assay: Acaricidal activity against Tetranychus cinnabarinus (carmine spider mite) at 600 mg/L relative to control
[5] = system: Myzus persicae; assay: Insecticidal activity against Myzus persicae (green peach aphid) at 600 mg/L relative to control
[6] = system: Blumeria graminis; assay: Antifungal activity against Blumeria graminis assessed as inhibition at 6.25 mg/L relative to control
[7] = system: Blumeria graminis; assay: Antifungal activity against Blumeria graminis assessed as inhibition at 400 mg/L relative to control
[8] = system: Pseudoperonospora cubensis; assay: Antifungal activity against Pseudoperonospora cubensis assessed as inhibition at 25 mg/L relative to control
[9] = system: Phytophthora infestans; assay: Antifungal activity against Phytophthora infestans assessed as inhibition at 0.92 mg/L relative to control
[10] = system: Pseudoperonospora cubensis; assay: Antifungal activity against Pseudoperonospora cubensis assessed as inhibition at 400 mg/L relative to control
[11] = system: Leucania; assay: Insecticidal activity against Leucania venalba at 600 mg/L relative to control
[12] = system: Blumeria graminis; assay: Antifungal activity against Blumeria graminis assessed as inhibition at 1.56 mg/L relative to control
[13] = system: Pseudoperonospora cubensis; assay: Antifungal activity against Pseudoperonospora cubensis assessed as inhibition at 6.25 mg/L relative to control
[14] = system: Culex pipiens pallens; assay: Insecticidal activity against Culex pipiens pallens (mosquito) at 600 mg/L relative to control

SMILES | inhibition at 25 µg/mL [1] [%] | inhibition at 0.92 µg/mL [2] [%] | inhibition at 25 µg/mL [3] [%] | Activity [4] [%] | Activity [5] [%] | inhibition at 6.25 µg/mL [6] [%] | inhibition at 400 µg/mL [7] [%] | inhibition at 25 µg/mL [8] [%] | inhibition at 0.92 µg/mL [9] [%] | inhibition at 400 µg/mL [10] [%] | Activity [11] [%] | inhibition at 1.56 µg/mL [12] [%] | inhibition at 6.25 µg/mL [13] [%] | Activity [14] [%]
CO/N=C(/C(=O)OC)c1ccccc1COc1cc(-c2ccc(C)c(C)c2)nn1C | 100 | 50 | 100 | 100 | 100 | 30 | 100 | 40 | 80 | 98 |  |  |  | 
CNC(=O)/C(=N/OC)c1ccccc1COc1c(C)c(-c2ccc(OC)cc2)nn1C | 80 | 50 | 100 |  |  | 100 | 100 | 85 | 50 | 98 | 100 | 75 | 55 | 
CO/N=C(/C(=O)OC)c1ccccc1COc1cc(-c2ccc(Cl)cc2)nn1C | 80 |  | 80 |  |  | 40 | 100 | 90 | 50 | 100 |  |  | 80 | 100
CNC(=O)/C(=N/OC)c1ccccc1COc1cc(-c2ccc(C)c(C)c2)nn1C | 100 | 50 | 100 | 100 | 100 | 100 | 100 | 100 | 80 | 100 |  | 40 | 85 | 
CNC(=O)/C(=N/OC)c1ccccc1COc1c(C)c(-c2cc(C)ccc2C)nn1C | 100 | 100 | 100 |  | 100 | 40 | 100 | 100 | 100 | 100 |  | 0 | 50 | 
CO/N=C(/C(=O)OC)c1ccccc1COc1c(C)c(-c2cc(C)ccc2C)nn1C | 100 | 100 | 100 |  | 100 | 40 | 100 | 80 | 60 | 100 | 100 | 20 | 40 | 
CNC(=O)/C(=N/OC)c1ccccc1COc1cc(-c2ccc(Cl)cc2)nn1C |  |  | 0 |  | 100 | 40 | 100 | 100 |  | 100 |  | 0 | 60 | 100
CCOc1ccc(-c2nn(C)c(OCc3ccccc3/C(=N\OC)C(=O)OC)c2C)cc1 | 100 | 50 | 100 | 100 |  | 100 | 100 | 40 | 50 | 100 |  | 50 |  | 
CNC(=O)/C(=N/OC)c1ccccc1COc1cc(-c2ccccc2OC)nn1C | 0 | 0 | 100 |  | 100 | 100 | 100 | 10 |  | 75 |  | 45 |  | 
CO/N=C(/C(=O)OC)c1ccccc1COc1cc(-c2ccc(C)cc2C)nn1C | 100 | 0 | 100 |  | 100 | 65 | 100 | 90 | 100 | 95 |  |  | 65 | 
